Here are results for nine compounds from patent US5502065A, “Indole derivatives as 5-HT1 -like agonists” (Pfizer Inc., priority 1992, dated 1996).

SMILES strings stand for the structures. Like-named read-outs stand apart in the source and are kept apart here.

As a reminder, the EC50 is the concentration that produces a half-maximal response.

Test [1] addresses T1, "5-HT1 -like" receptor (Canis lupus familiaris, UniProt P79250).
T1 construct: dog isolated saphenous vein strip; from tissue; host or cells: dog isolated saphenous vein strip
The test is described as follows: contraction of dog isolated saphenous vein strip ("5-HT1 -like" receptor agonist activity). The note with it: for Emax: read-out: […] RELATIVE TO 5-HT RESPONSE, relative to 5-HT response, read-out: PERCENTAGE AGONISM RELATIVE TO 5-HT RESPONSE
As to the method:
The in vitro evaluation of the "5-HT1 -like" receptor agonist activity of the compounds of the formula (I) is carried out by testing the extent to which they mimic sumatriptan in contracting the dog isolated saphenous vein strip (P. P. A. Humphrey et al., .Br. J. Pharmacol., 94, 1123 (1988)).
The in vitro evaluation of the "5-HT1 -like" receptor agonist activity of the compounds of the invention is carried out by testing the extent to which they mimic sumatriptan in contracting the isolated dog saphenous vein strip (P. P. A. Humphrey et al., Brit. J. Pharmacol., 1988, 94, 1123).
EC50 represents the concentration of compound which causes 50% of the maximum contraction effected by it.

Test [2] concerns carotid vascular bed. Particulars: anaesthetized dog, cited from earlier work.
Test [3] addresses T1, "5-HT1 -like" receptor. The note with it: dog isolated saphenous vein strip; cited from earlier work.
[4] abbreviates: dog isolated saphenous vein strip.

T1 sequence (P79250 whole entry): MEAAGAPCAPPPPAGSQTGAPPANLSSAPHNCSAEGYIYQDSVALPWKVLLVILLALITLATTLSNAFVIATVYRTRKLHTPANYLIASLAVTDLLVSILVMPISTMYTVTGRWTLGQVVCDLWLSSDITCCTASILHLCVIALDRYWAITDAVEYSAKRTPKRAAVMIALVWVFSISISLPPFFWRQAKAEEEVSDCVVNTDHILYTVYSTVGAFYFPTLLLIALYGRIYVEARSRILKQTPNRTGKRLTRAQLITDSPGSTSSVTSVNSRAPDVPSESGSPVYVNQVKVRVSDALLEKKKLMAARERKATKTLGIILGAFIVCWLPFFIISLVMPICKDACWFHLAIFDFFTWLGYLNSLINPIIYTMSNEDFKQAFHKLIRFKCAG

For the compound `CN1CCC[C@@H]1Cc1c[nH]c2ccc(-c3cccc(S(N)(=O)=O)c3)cc12` [Example 3], in test [1], the EC50 came to 3.78 nM. Moreover, the Emax in test [1] (setting [4]) was 85%. Taken in the same sequence, the figures for `OCc1ccc(-c2ccc3[nH]cc(C[C@H]4CCCN4)c3c2)cc1` [Example 37, 5-(4-Hydroxymethylphenyl)-3-(pyrrolidin-2(R)-ylmethyl)-1H-indole] were 76 nM and 72%. In the case of `CN(C)C(=O)CCN1CCC[C@@H]1Cc1c[nH]c2ccc(-c3cccc(C(=O)N(C)C)c3)cc12` [Example 46, 3-1-(2-N,N-dimethylcarbamoylethyl)pyrrolidin-2(R)-ylmethyl!5-(3-N,N-dimethylcarbamoylphenyl)-1H-indole], the EC50 in test [1] (dog isolated saphenous vein strip, concentration of compound which causes 50% of the maximum contraction effected by it, read-out: EC50) came to 160 nM. For the same compound, in test [1] (setting [4]), the Emax amounted to 78%. `CN1CCC[C@@H]1Cc1c[nH]c2ccc(-c3cncc(C#N)c3)cc12` [Example 53] returned an EC50 in test [1] of 26 nM. Besides, in test [1] (setting [4]), the Emax is 75%. Taken in the same sequence, the figures for `c1ncc(-c2ccc3[nH]cc(C[C@H]4CCCN4CC4CC4)c3c2)cn1` [Example 60, 3-(1-Cyclopropylmethylpyrrolidin-2(R)-ylmethyl)-5-(5-pyrimidinyl)-1H-indole] were 9.2 nM and 105%. Taken in the same sequence, the figures for `CN1CCC[C@@H]1Cc1c[nH]c2ccc(-c3ccc(C(N)=O)s3)cc12` [Example 64, 5-(5-Carbamoyl-2-thienyl)-3-(1-methylpyrrolidin-2(R)-ylmethyl)-1H-indole] were 25 nM and 79%. For `CN1CCC[C@@H]1Cc1c[nH]c2ccc(-c3ccc(CO)o3)cc12` [Example 66, 5-(5-Hydroxymethyl-2-furyl)-3-(1-methylpyrrolidin-2(R)-ylmethyl)-1H -indole] the same measures were 19 nM and 80%. For `CNS(=O)(=O)Cc1ccc2[nH]cc(CCN(C)C)c2c1` [Sumatriptan], the carotid vascular resistance result in test [2] is listed as “selective increase”. In test [2] (consequent on increased carotid vascular resistance), the “carotid arterial blood flow” value is recorded as “decrease”.

Take `CSc1ccc2c(c1)C(N1CCN(C)CC1)Cc1ccccc1S2` (centres unmarked) [methiothepin]: the “block of saphenous vein contraction (5-HT antagonism)” value in test [3] is given as “can be blocked”.
